From patent US11319305B2, “Pyrimidine sulfamide derivative and preparation method and medical application thereof” (SHIJIAZHUANG SAGACITY NEW DRUG DEVELOPMENT CO., LTD., priority 2017, dated 2022)

Columns and labels:
human ETA receptor = target: T1, human ETA receptor (Homo sapiens, UniProt P25101); assay: In vitro antagonistic effect against human ETA receptor, Ca2+ signal in SK-N-MC cells; format: cell-based; details: for IC50: SK-N-MC cells, response to 1 nM endothelin-1; for ETA/ETB selectivity: ratio of ETB IC50 to ETA IC50
T1 construct: endogenously expressed human ETA receptors in SK-N-MC cells; host or cells: SK-N-MC cells
T1 sequence (P25101 21-427): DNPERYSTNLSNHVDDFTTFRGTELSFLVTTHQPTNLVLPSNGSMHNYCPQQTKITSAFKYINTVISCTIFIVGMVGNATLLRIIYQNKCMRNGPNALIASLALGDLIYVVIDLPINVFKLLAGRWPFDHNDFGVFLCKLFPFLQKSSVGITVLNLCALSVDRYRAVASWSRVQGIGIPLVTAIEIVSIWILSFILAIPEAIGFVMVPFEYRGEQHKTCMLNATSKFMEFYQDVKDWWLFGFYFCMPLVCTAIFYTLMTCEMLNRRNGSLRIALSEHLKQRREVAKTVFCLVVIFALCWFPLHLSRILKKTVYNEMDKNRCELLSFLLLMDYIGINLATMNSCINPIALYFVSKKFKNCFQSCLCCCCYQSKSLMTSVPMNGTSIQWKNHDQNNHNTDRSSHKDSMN
Protocol: Experimental Embodiment 1: In Vitro Test of Antagonistic Effect Against Human ETA Receptor
Antagonistic activity of the compounds against endogenously expressed human ETA receptors in SK-N-MC cells was evaluated by measuring the effect of compounds on the changes in cytoplasmic Ca^2+ ion signal induced by human ETA receptor agonists using fluorescence detection methods. The functional activity of the ETA receptor antagonistic effect was tested in Eurofins-Cerep SA according to current standard procedures.
1. Cells were suspended in Dulbecco's modified Eagle medium solution (DMEM, Invitrogen) supplemented with 1% FCSd, then distributed in 384-well plate (100 μL/well) at a density of 5×10^4 cells/well;
2. Probenecid in Hank's balanced salt solution (HBSS, Invitrogen) supplemented with 20 mM 4-(2-hydroxyethyl)piperazine-1-ethanesulfonic acid (Hepes, Invitrogen) (pH 7.4) was mixed with fluorescent probe (Fluo4 NW, Invitrogen), the mixture was added to each wells, then balanced with cells at 37° C. for 60 minutes, and then balanced with cells at 22° C. for 15 minutes;
(§1) 3. The test plate was placed in a microplate reader (CellLux, PerkinElmer), a DMSO solution or HBSS buffer with an appropriate concentration of the test compound and the positive control was added, and 1 nM endothelin-1 or HBSS buffer (base control) was added after 5 minutes, and then the change in fluorescence intensity proportional to the concentration of Ca^2+ ions of free […] was measured;
5. Standard positive control was BQ-123, several concentrations were tested in each experiments. The data was analyzed using Prism to generate a concentration-response curve, and IC50 values of the compounds were calculated.

human ETB receptor = target: T2, human ETB receptor (Homo sapiens, UniProt P24530); assay: In vitro antagonistic effect against human ETB receptor, Ca2+ signal in transfected CHO cells; format: cell-based; details: response to 0.3 nM endothelin-1
T2 construct: host or cells: CHO cells
T2 sequence (P24530 27-442): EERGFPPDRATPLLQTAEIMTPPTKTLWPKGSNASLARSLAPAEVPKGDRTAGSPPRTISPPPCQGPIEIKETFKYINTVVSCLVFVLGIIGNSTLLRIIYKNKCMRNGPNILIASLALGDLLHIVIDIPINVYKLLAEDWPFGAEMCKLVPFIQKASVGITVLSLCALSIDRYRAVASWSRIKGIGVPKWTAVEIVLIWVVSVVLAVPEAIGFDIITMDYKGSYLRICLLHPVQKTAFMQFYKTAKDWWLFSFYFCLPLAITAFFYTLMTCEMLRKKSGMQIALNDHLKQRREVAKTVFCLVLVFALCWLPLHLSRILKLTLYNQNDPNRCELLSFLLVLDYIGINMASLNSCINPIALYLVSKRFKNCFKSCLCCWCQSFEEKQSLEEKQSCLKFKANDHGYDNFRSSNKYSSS
Protocol: Antagonist activity of the compound against human ETB receptors expressed in transfected CHO cells was evaluated by measuring the effect of the compound on the changes in the cytoplasmic Ca^2+ ion signal induced by human ETB receptor agonists. The functional activity of the ETB receptor antagonistic effect was tested in Eurofins-Cerep SA according to current standard procedures.
1. Cells were suspended in DMEM buffer (Invitrogen) and then distributed in 384-well plate (100 μL/well) at a density of 3×10^4 cells/well;
2. Probenecid in HBSS buffer (Invitrogen) supplemented with 20 mM Hepes (Invitrogen) (pH 7.4) was mixed with fluorescent probe (Fluo4 NW, Invitrogen), the mixture was added to each wells, then balanced with cells at 37° C. for 60 minutes, and then balanced with cells at 22° C. for 15 minutes;
as §1, with “and 0.3” for “and 1”
4. Results were shown as the percent inhibition of control response to 0.3 nM endothelin-1;
5. Standard positive control was BQ-788, several concentrations were tested in each experiments. The data was analyzed using Prism to generate a concentration-response curve, and IC50 values of the compounds were calculated.

Row | Compound | IC50 (human ETA receptor) | ETA/ETB selectivity (human ETA receptor) | IC50 (human ETB receptor)
1 | O=S(=O)(NCC1CCCO1)Nc1ncnc(OCCOc2ncc(Br)cn2)c1-c1ccc2c(c1)OCO2 (single isomer, unassigned) [WX023] | 0.32 nM | 46800 | 15000 nM
2 | O=S(=O)(NCC1CCCO1)Nc1ncnc(OCCOc2ncc(Br)cn2)c1-c1ccc2c(c1)OCO2 (single isomer, unassigned) [WX024] | 0.25 nM | 26800 | 6700 nM
3 | CCNS(=O)(=O)Nc1ncnc(OCCOc2ncc(Br)cn2)c1-c1ccc2scnc2c1 [WX002] | 2.8 nM | >107000 | > 300000 nM
4 | O=S(=O)(NCC(F)(F)F)Nc1ncnc(OCCOc2ncc(Br)cn2)c1-c1ccc2scnc2c1 [WX003] | 2.6 nM | 27300 | 71000 nM
5 | CCCCNS(=O)(=O)Nc1ncnc(OCCOc2ncc(Br)cn2)c1-c1ccc2scnc2c1 [WX004] | 1.5 nM | 14000 | 21000 nM
6 | CCCOCCNS(=O)(=O)Nc1ncnc(OCCOc2ncc(Br)cn2)c1-c1ccc2scnc2c1 [WX006] | 1.3 nM | >230700 | > 300000 nM
7 | COCCCNS(=O)(=O)Nc1ncnc(OCCOc2ncc(Br)cn2)c1-c1ccc2scnc2c1 [WX007] | 2.1 nM | 16600 | 35000 nM
8 | CCCNS(=O)(=O)Nc1ncnc(OCCOc2ncc(Br)cn2)c1-c1ccc2c(c1)OCO2 [WX008] | 0.43 nM | 651100 | 280000 nM
9 | CCNS(=O)(=O)Nc1ncnc(OCCOc2ncc(Br)cn2)c1-c1ccc2c(c1)OCO2 [WX009] | 2.3 nM | 30800 | 71000 nM
10 | O=S(=O)(NCC(F)(F)F)Nc1ncnc(OCCOc2ncc(Br)cn2)c1-c1ccc2c(c1)OCO2 [WX010] | 1.5 nM | 40600 | 61000 nM
11 | O=S(=O)(Nc1ncnc(OCCOc2ncc(Br)cn2)c1-c1ccc2c(c1)OCO2)NC1CCC1 [WX011] | 1 nM | 22000 | 22000 nM
12 | CCCCNS(=O)(=O)Nc1ncnc(OCCOc2ncc(Br)cn2)c1-c1ccc2c(c1)OCO2 [WX012] | 0.17 nM | 94100 | 16000 nM
13 | O=S(=O)(NCC1CC1)Nc1ncnc(OCCOc2ncc(Br)cn2)c1-c1ccc2c(c1)OCO2 [WX014] | 1.3 nM | 26900 | 35000 nM
14 | CCOCCNS(=O)(=O)Nc1ncnc(OCCOc2ncc(Br)cn2)c1-c1ccc2c(c1)OCO2 [WX015] | 0.86 nM | >348800 | > 300000 nM
15 | CCCOCCNS(=O)(=O)Nc1ncnc(OCCOc2ncc(Br)cn2)c1-c1ccc2c(c1)OCO2 [WX016] | 0.79 nM | 27800 | 22000 nM
16 | COCCCNS(=O)(=O)Nc1ncnc(OCCOc2ncc(Br)cn2)c1-c1ccc2c(c1)OCO2 [WX017] | 0.45 nM | 35500 | 16000 nM
17 | CCOCCCNS(=O)(=O)Nc1ncnc(OCCOc2ncc(Br)cn2)c1-c1ccc2c(c1)OCO2 [WX018] | 0.76 nM | 12600 | 9600 nM
18 | O=S(=O)(NCC1CCOCC1)Nc1ncnc(OCCOc2ncc(Br)cn2)c1-c1ccc2c(c1)OCO2 [WX019] | 0.44 nM | >68100 | > 30000 nM
19 | O=S(=O)(NCC1CCC1)Nc1ncnc(OCCOc2ncc(Br)cn2)c1-c1ccc2c(c1)OCO2 [WX020] | 0.35 nM | 48500 | 17000 nM
20 | O=S(=O)(NCC1CCCO1)Nc1ncnc(OCCOc2ncc(Br)cn2)c1-c1ccc2c(c1)OCO2 (stereo not drawn) [WX021] | 0.34 nM | 135200 | 46000 nM
21 | CS(=O)(=O)CCNS(=O)(=O)Nc1ncnc(OCCOc2ncc(Br)cn2)c1-c1ccc2c(c1)OCO2 [WX022] | 2.1 nM | 36100 | 76000 nM
22 | CCCCNS(=O)(=O)Nc1ncnc(OCCOc2ncc(Br)cn2)c1-c1ccc2ccnn2c1 [WX026] | 1.1 nM | 66300 | 73000 nM
23 | O=S(=O)(NCC1CC1)Nc1ncnc(OCCOc2ncc(Br)cn2)c1-c1ccc2ccnn2c1 [WX027] | 2.8 nM | 24200 | 68000 nM
24 | O=S(=O)(Nc1ncnc(OCCOc2ncc(Br)cn2)c1-c1ccc2c(c1)OCC2)N1CCC2(CC1)CC2 [WX028] | 2 nM | >50000 | > 100000 nM
25 | CCCNS(=O)(=O)Nc1ncnc(OCCOc2ncc(Br)cn2)c1-c1ccc2c(c1)OCC2 [WX029] | 0.65 nM | 24600 | 16000 nM
26 | COCCNS(=O)(=O)Nc1ncnc(OCCOc2ncc(Br)cn2)c1-c1ccc2c(c1)OCC2 [WX030] | 1.3 nM | 25300 | 33000 nM
27 | O=S(=O)(Nc1ncnc(OCCOc2ncc(Br)cn2)c1-c1ccc2c(c1)OCC2)N1C[C@H]2C[C@H]2C1 [WX031] | 1.1 nM | >90900 | > 100000 nM
28 | O=S(=O)(Nc1ncnc(OCCOc2ncc(Br)cn2)c1-c1ccc2c(c1)OCC2)N1CC2(COC2)C1 [WX032] | 3 nM | >10000 | > 30000 nM
29 | CCCNS(=O)(=O)Nc1ncnc(OCCOc2ncc(Br)cn2)c1-c1ccc2c(c1)CCO2 [WX033] | 1.6 nM | >18700 | > 30000 nM
30 | COCCNS(=O)(=O)Nc1ncnc(OCCOc2ncc(Br)cn2)c1-c1ccc2c(c1)CCO2 [WX034] | 3.6 nM | 55500 | 200000 nM
